Measurements from US6818646B2 (priority 2000, dated 2004).
pIC50: −log10 of the molar value. Counter-ions that a name gives are not always drawn.

Each compound was assayed against T1, PDEV (Homo sapiens, UniProt O76074) (assay: PDE assay: inhibition of PDEV isolated from human tissue). Conditions: 10 μM test compound.
T1 construct: PDEV was isolated from rabbit and human tissues according to the protocol described by Boolell et al; from tissue; host or cells: human tissue, homogenate supernatant fractionated on Mono Q
Format: biochemical
Protocol: Briefly, rabbit or human tissues were homogenized in an ice-cold buffer solution containing 20 mM HEPES (pH 7.2), 0.25M sucrose, 1 mM EDTA, and 1 mM phenylmethylsulphonyl fluoride (PMSF). The homogenates were centrifuged at 100,000 g for 60 minutes at 4° C. The supernatant was filtered through […] filter and loaded on a Pharmacia Mono Q anion exchange column (1 ml bed volume) that was equilibrated with 20 mM HEPES, 1 mM EDTA and 0.5 mM PMSF. After washing out unbound proteins, the enzymes were eluted with a linear gradient of 100-600 mM NaCl in the same buffer (35 to 50 ml total, depending on the tissue. Enzymes from the skeletal muscle, corpus cavernosum, retina, heart and platelet were eluted with 35, 40, 45, 50, and 50 ml respectively.) The column was run at a flow rate of 1 ml/min and 1 ml fractions were collected. The fractions comprising various PDE activities were pooled separately and used in later studies.
The assays were adapted to a 96-well format. The enzyme was assayed in 5 mM MgCl2, 15 mM Tris HCl (pH 7.4), 0.5 mg/ml bovine serum albumin, 1 μM cGMP or cAMP, 0.1 μCi [^3H]-cGMP or [^3H]-cAMP, and 2-10 μl of column elution. The total volume of the assay was 100 μl. The reaction mixture was incubated at 30° C. for 30 minutes. The reaction was stopped by boiling for 1 minute and then cooled down on ice. The resulting [^3H]5′-mononucleotides were further converted to uncharged [^3H]-nucleosides by adding 25 μl 1 mg/ml snake venom (Ophiophagus hannah) and incubating at 30° C. for 10 minute. The reaction was stopped by the addition of 1 ml Bio-Rad AG1-X2 resin slurry (1:3). All the charged nucleotides were bound by the resin and only uncharged [^3H]-nucleosides remained in the supernatant after centrifuging. An aliquot of 200 μl was taken and counted by liquid scintillation. PDE activity was expressed as pmol cyclic nucleotide hydrolyzed/min/ml of enzyme preparation.
Inhibitor studies were carried out in assay buffer with a final concentration of 10% DMSO.
The % inhibition of the maximum substrate conversion (by the enzyme in the absence of inhibitor) was calculated for each test compound concentration. Using GraphPad Prism's nonlinear regression analysis (sigmoidal dose response), the % inhibition vs log of the test compound concentration was plotted to determine the IC50. Under conditions where substrate concentration <<Km of the enzyme (Km=substrate concentration at which half of the maximal velocity of the enzyme is achieved), Ki is equivalent to the IC50 value.
Unless otherwise noted, PDEV inhibitory activities were measured using human tissue. The abbreviation “stereo” refers to the stereogenic configuration, the abbreviation “Rac” shall denote a racemic mixture.

Question: For `O=c1c2c([nH]c3ccccc13)C(c1ccc3c(c1)CCO3)NC2` (racemic) [Compound 17, 1,2,3,4-Tetrahydro-3-(2,3-dihydrobenzofuran-5-yl)-9H-pyrrolo-[3,4-b]quinolin-9-one, hydrochloride salt], which inhibition at 10 µM is on record?
Answer: 65%

Same assay, conditions: PDEV inhibitory activity

Question: How did the pIC50 turn out when `COc1ccc(-c2cnc(N3Cc4c([nH]c5ccccc5c4=O)C3c3ccc4c(c3)CCO4)nc2)cc1` (stereo not drawn) [Compound 39, 1,2,3,4-Tetrahydro-2-[5-(4-methoxyphenyl)-pyrimidin-2-yl]-3-(2,3-dihydrobenzofuranyl)-9H-pyrrolo-[3,4-b]quinolin-9-one] was run?
Answer: 9.33

Question: With `O=C(c1cccnc1O)N1Cc2c([nH]c3ccccc3c2=O)C1c1ccc2c(c1)OCO2` (racemic) [Compound 25, 1,2,3,4-Tetrahydro-3-(3,4-methylenedioxyphenyl)-2-[2-hydroxynicotinoyl)-9H-pyrrolo[3,4-b]-quinolin-9-one] as the compound, how does the pIC50 read?
Answer: 8.80

Question: With `O=C(O)c1ccc(/C=C/C(=O)N2Cc3c([nH]c4ccccc4c3=O)C2c2ccc3c(c2)OCO3)cc1` (racemic) [Compound 8, (E)-4-[3-Oxo-3-[1,2,3,4-tetrahydro-3-(3,4-methylenedioxyphenyl)-9H-pyrrolo-[3,4-b]quinolin-9-one-2-yl]-1-propenyl]benzoic acid] as the compound, how does the pIC50 read?
Answer: 9.08

Question: How did the pIC50 turn out when `O=C(c1ccc(-c2cccc(C(F)(F)F)c2)o1)N1Cc2c([nH]c3ccccc3c2=O)C1c1ccc2c(c1)OCO2` (stereo not drawn) [Compound 13, 1,2,3,4-Tetrahydro-3-(3,4-methylenedioxyphenyl)-2-[5-(3-trifluoromethylphenyl)furoyl]-9H-pyrrolo-[3,4-b]quinolin-9-one] was run?
Answer: 9.64

Question: How did the pIC50 turn out when `O=C(c1ccc(-c2ccc(O)cc2)o1)N1Cc2c(nc3ccccc3c2O)C1c1ccc2c(c1)OCO2` (racemic) [Compound 22, 1,2,3,4-Tetrahydro-3-(3,4-methylenedioxyphenyl)-2-[5-(4-hydroxyphenyl)furoyl]-9H-pyrrolo[3,4-b]-quinolin-9-one] was run?
Answer: 9.07

Question: `COc1ccc(-c2ccc(C(=O)N3Cc4c([nH]c5ccccc5c4=O)C3c3ccc4c(c3)OCO4)o2)cc1` (stereo not drawn) [Compound 21, 1,2,3,4-Tetrahydro-3-(3,4-methylenedioxyphenyl)-2-[5-(4-methoxyphenyl)-furoyl]-9H-pyrrolo[3,4-b]-quinolin-9-one] was tested. Which pIC50 did it give?
Answer: 8.71

Question: `COc1ccc(-c2cnc(N3Cc4c([nH]c5ccccc5c4=O)C3c3ccc4c(c3)OCO4)nc2)cc1OC` (racemic) [Compound 1, 1,2,3,4-Tetrahydro-2-[5-(3,4-dimethoxyphenyl)-pyrimidin-2-yl]-3-(3,4-methylenedioxyphenyl)-9H-pyrrolo-[3,4-b]quinolin-9-one] was tested. Which pIC50 did it give?
Answer: 9.78

Question: With `COC(=O)c1ccc(/C=C/C(=O)N2Cc3c([nH]c4ccccc4c3=O)C2c2ccc3c(c2)OCO3)cc1` (racemic) [Compound 6, (E)-4-[3-Oxo-3-[1,2,3,4-tetrahydro-3-(3,4-methylenedioxyphenyl)-9H-pyrrolo-[3,4-b]quinolin-9-one-2-yl]-1-propenyl]benzoic Acid Methyl Ester] as the compound, how does the pIC50 read?
Answer: 9.29

Question: How did the pIC50 turn out when `O=c1c2c([nH]c3ccccc13)C(c1ccc3c(c1)OCO3)N(Cc1ccncc1)C2` (racemic) [Compound 5, 1,2,3,4-Tetrahydro-3-(3,4-methylenedioxyphenyl)-2-(pyridin-4-yl)methyl-9H-pyrrolo-[3,4-b]quinolin-9-one] was run?
Answer: 6.16

Question: How did the pIC50 turn out when `Oc1c2c(nc3ccccc13)C(c1ccc3c(c1)CCO3)N(c1ncccn1)C2` (racemic) [Compound 123, 3-(2,3-Dihydro-benzofuran-5-yl)-2-pyrimidin-2-yl-1,2,3,4-tetrahydro-pyrrolo[3,4-b]quinolin-9-one] was run?
Answer: 7.89

Question: How did the pIC50 turn out when `Oc1c2c(nc3ccccc13)[C@@H](c1ccc3c(c1)CCO3)N(c1ncc(-c3ccccn3)cn1)C2` [Compound 76] was run?
Answer: 9.64

Question: With `CN1CCN(C(=O)c2ccc(-c3ccc(C(=O)N4Cc5c([nH]c6ccccc6c5=O)[C@H]4c4ccc5c(c4)OCO5)o3)cc2)CC1` [Compound 69, (R)-1,2,3,4-Tetrahydro-3-(3,4-methylenedioxyphenyl)-2-(5-(4-(1-(4-methyl)-piperazinylcarbonyl)-phenyl)-furoyl)-9H-pyrrolo[3,4-b]quinolin-9-one] as the compound, how does the pIC50 read?
Answer: 9.49

Question: `O=c1c2c([nH]c3ccccc13)C(c1ccc3c(c1)OCO3)N(c1ncc(Br)cn1)C2` (racemic) [Compound 55, 1,2,3,4-Tetrahydro-2-(5-bromopyrimidin-2-yl)-3-(3,4-methylenedioxyphenyl)-9H-pyrrolo-[3,4-b]quinolin-9-one] was tested. Which pIC50 did it give?
Answer: 8.35

Question: With `O=c1c2c([nH]c3ccccc13)C(c1ccc3c(c1)OCO3)NC2` (racemic) [Compound 4, 1,2,3,4-Tetrahydro-3-(3,4-methylenedioxyphenyl)-9H-pyrrolo-[3,4-b]quinolin-9-one, hydrochloride salt] as the compound, how does the pIC50 read?
Answer: 6.18

Question: With `Oc1c2c(nc3ccccc13)C(c1ccc3c(c1)OCO3)N(c1ncc(-c3cccnc3)cn1)C2` (racemic) [Compound 56, 1,2,3,4-Tetrahydro-2-[5-(3-pyridinyl)-pyrimidin-2-yl]-3-(3,4-methylenedioxyphenyl)-9H-pyrrolo-[3,4-b]quinolin-9-one] as the compound, how does the pIC50 read?
Answer: 8.91

Question: `Oc1c2c(nc3ccccc13)C(c1ccc3c(c1)OCO3)N(c1ncc(-c3cccnc3)cn1)C2` (racemic) [Compound 100] was tested. Which pIC50 did it give?
Answer: 9.28

Question: `Oc1c2c(nc3ccccc13)C(c1ccc3c(c1)OCO3)N(c1ncccn1)C2` (racemic) [Compound 11, 1,2,3,4-Tetrahydro-2-(pyrimidin-2-yl)-3-(3,4-methylenedioxyphenyl)-9H-pyrrolo-[3,4-b]quinolin-9-one] was tested. Which pIC50 did it give?
Answer: 8.43

Question: With `O=c1c2c([nH]c3ccccc13)C(c1ccc3c(c1)OCO3)N(Cc1ccccc1)C2` (racemic) [Compound 54, 1,2,3,4-Tetrahydro-2-benzyl-3-(3,4-methylenedioxyphenyl)-9H-pyrrolo-[3,4-b]quinolin-9-one] as the compound, how does the pIC50 read?
Answer: 6.63

Question: With `O=Cc1ccc(-c2ccc(C(=O)N3Cc4c([nH]c5ccccc5c4=O)C3c3ccc4c(c3)OCO4)o2)cc1` (stereo not drawn) [Compound 23, 1,2,3,4-Tetrahydro-3-(3,4-methylenedioxyphenyl)-2-[5-(4-formylphenyl)-furoyl]-9H-pyrrolo[3,4-b]-quinolin-9-one] as the compound, how does the pIC50 read?
Answer: 8.75

Question: With `COC(=O)c1ccc(/C=C/C(=O)N2Cc3c([nH]c4ccccc4c3=O)C2c2ccc3c(c2)CCO3)cc1` (racemic) [Compound 20, (E)-4-[3-Oxo-3-[1,2,3,4-tetrahydro-3-(2,3-dihydrobenzofuran-5-yl)-9H-pyrrolo-[3,4-b]quinolin-9-one-2-yl]-1-propenyl]benzoic acid, methyl ester] as the compound, how does the pIC50 read?
Answer: 9.28

Question: `O=c1c2c([nH]c3ccccc13)[C@@H](c1ccc3c(c1)CCO3)N(Cc1ccccc1)C2` [Compound 77, (R)-1,2,3,4-Tetrahydro-2-benzyl-3-(2,3-dihydrobenzofuran-5-yl)-9H-pyrrolo-[3,4-b]quinolin-9-one] was tested. Which pIC50 did it give?
Answer: 7.20

Question: How did the pIC50 turn out when `O=c1c2c([nH]c3ccccc13)C(c1ccc3c(c1)OCO3)N(c1ncc(-c3ccncc3)cn1)C2` (racemic) [Compound 99] was run?
Answer: 9.08

Question: How did the pIC50 turn out when `CN1CCN(C(=O)c2ccc(-c3ccc(C(=O)N4Cc5c([nH]c6ccccc6c5=O)C4c4ccc5c(c4)OCO5)o3)cc2)CC1` (stereo not drawn) [Compound 44, 1,2,3,4-Tetrahydro-3-(3,4-methylenedioxyphenyl)-2-(5-(4-(1-(4-methyl)piperazinylcarbonyl)-phenyl)-furoyl)-9H-pyrrolo[3,4-b]quinolin-9-one] was run?
Answer: 8.80

Question: With `COC(=O)c1ccc(-c2ccc(C(=O)N3Cc4c([nH]c5ccccc5c4=O)C3c3ccc4c(c3)OCO4)o2)cc1` (stereo not drawn) [Compound 24, 1,2,3,4-Tetrahydro-3-(3,4-methylenedioxyphenyl)-2-[5-(4-methoxycarbonylphenyl)-furoyl]-9H-pyrrolo[3.4-b]-quinolin-9-one] as the compound, how does the pIC50 read?
Answer: 8.92

Question: How did the pIC50 turn out when `O=C(c1ccc(-c2ccc(OCCN3CCCC3)cc2)o1)N1Cc2c(nc3ccccc3c2O)C1c1ccc2c(c1)OCO2` (racemic) [Compound 45, 1,2,3,4-Tetrahydro-3-(3.4-methylenedioxyphenyl)-2-(5-(4-(2-(1-pyrrolidinyl)ethoxy)phenyl)-furoyl)-9H-pyrrolo[3,4-b]quinolin-9-one] was run?
Answer: 8.88

Question: How did the pIC50 turn out when `O=C(c1ccc(-c2ccc([N+](=O)[O-])cc2)o1)N1Cc2c(nc3ccccc3c2O)C1c1ccc2c(c1)OCO2` (racemic) [Compound 16, 1,2,3,4-Tetrahydro-3-(3,4-methylenedioxyphenyl)-2-[5-(4-nitrophenyl)-furoyl]-9H-pyrrolo[3,4-b]quinolin-9-one] was run?
Answer: 9.41
